# Source: patent US4952580A, “Pesticidal polyhaloalkene derivatives” (priority 1988, dated 1990)
# Read-outs that look alike come from different tables or passages of the source.
# Assays:
# [1] = system: root-knot nematode (Meloidogyne incognita); assay: Initial Root-Knot Nematicidal Activity; assay type: in vivo; conditions: 336 h, read-out: Percent Control; for pest or weed control at 0.313 ppm: Table 2, Application Rate 0.313 ppm; for pest or weed control at 0.625 ppm: Table 2, Application Rate 0.625 ppm; for pest or weed control at 1.25 ppm: Table 2, Application Rate 1.25 ppm; for pest or weed control at 2.5 ppm: Table 2, Application Rate 2.5 ppm
# In short: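 Compound incorporated into Meloidogyne incognita-infested soil at 10 ppm to 0.078 ppm, then planted with tomato or cucumber seedlings. Root galling scored two weeks after planting as a knot index and converted to percent control, given as averages.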
# root-knot nematode [2] = assay: Residual Root-Knot Nematicidal Activity; assay type: in vivo, Meloidogyne incognita; conditions: read-out: Percent Control
# Description: (§1) Compounds of this invention were tested as follows for nematicidal and anthelmintic activity as dust formulations (initial and residual activity) and as acetone/water formulations (systemic activity). The formulations are described above.
# The ability of nematicidal compounds of the invention to control root-knot nematode infestations in soil over a period of time after treatment was evaluated. Dust formulations of test compound (5%) were incorporated into soil samples at test compound rates of 5 and 10 ppm. Subsequently, the treated soil samples were inoculated with nematode inoculum at weekly intervals, and Knot Index and Percent Control determined on seedlings planted in the soil samples. Specifically, soil treated with test compound was placed in 7.6 cm diameter fiber pots and stored in a greenhouse. At one, two and four weeks post-treatment, the appropriate number of pots was infested with root-knot nematode eggs and larvae. A cucumber or tomato seedling was planted in each pot and evaluated approximately two weeks after the soil infestation to obtain the test results reported in Tables 3 and 3a appended.
# lesion nematode = assay: Lesion Nematode Test; assay type: in vivo; conditions: Table 5, read-out: Percent Control; for pest or weed control at 2.5 ppm: rate 2.5 ppm
# In short: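 Run as the stunt nematode test but on pea seedlings; compounds applied as dust formulations (initial and residual activity) or acetone/water formulations (systemic activity), with untreated samples as reference. Percent control derived by formula.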
# cyst nematode = assay: Cyst Nematode Test; assay type: in vivo; conditions: read-out: Percent Control; for pest or weed control at 5 ppm: Table 6, rate 5 ppm
# Description: as §1
# The procedures was substantially the same as described in the stunt nematode test except soybean seedlings were used. "Percent Control" (Table 6 appended) is as defined in the stunt nematode test results.
# root-knot nematode [3] = assay: Soil Mobility against root-knot nematode; assay type: in vivo, Meloidogyne incognita; conditions: 336 h; for pest or weed control at 5 ppm: Table 7a, 5% dust
# In short: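 Soil mobility of the nematicidal test material was evaluated by placing treated, nematode-infested soil in 8 cm plastic pots stacked above two or more pots of untreated infested soil, each containing a 10 cm^3 sand layer and filter paper discs. Fifteen cm of water was dripped through, pots drained 16-18 hours, then were planted with cucumber or tomato seedlings and scored for Percent Control.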
# Caenorhabditis elegans = assay: C. Elegans Nematode Screening Test and Evaluation (in-vitro); conditions: Caenorhabditis elegans
# In short: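 Worms (10-15 per well) in buffer with E. coli food, ampicillin and mycostatin; compound added in DMSO, 2-3 replicates per rate. Incubated 5-6 days at 20° C. Population development scored against untreated wells, noting effects such as reduced egg hatch or molting disruption.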
# [4] = 168 h, Table 3, inoculation 1 week after treatment
# [5] = 336 h, Table 3, inoculation 2 weeks after treatment
# [6] = 672 h, Table 3, inoculation 4 weeks after treatment
# [7] = Table 7, 30 ppm, Bottom container, read-out: Percent Control
# [8] = Table 7, 30 ppm, Middle container, read-out: Percent Control
smiles,measurement,setting,value
"O=C(CSCCC(F)=C(F)F)OCCC(F)=C(F)F [Compound 18, (3,4,4-trifluoro-3-butenyl) (3,4,4-trifluoro-3-butenylthio)acetate]",pest or weed control at 0.313 ppm,[1],0%
same,pest or weed control at 0.625 ppm,[1],19%
same,pest or weed control at 1.25 ppm,[1],38%
same,pest or weed control at 5 ppm,"[1]; Table 2, Application Rate 5.0 ppm",99%
same,pest or weed control at 10 ppm,"[1]; Table 2, Application Rate 10.0 ppm",100%
same,pest or weed control at 10 ppm,root-knot nematode [2]; [4],0%
same,pest or weed control at 10 ppm,root-knot nematode [2]; [5],0%
same,pest or weed control at 10 ppm,root-knot nematode [2]; [6],0%
same,pest or weed control at 5 ppm,lesion nematode; rate 5 ppm,0%
same,pest or weed control at 5 ppm,cyst nematode,8%
same,pest or weed control at 30 ppm,root-knot nematode [3]; [7],25%
same,pest or weed control at 30 ppm,root-knot nematode [3]; [8],25%
same,pest or weed control at 30 ppm,"root-knot nematode [3]; read-out: Percent Control, Table 7, 30 ppm, Top container",33%
"O=C(OCCC(F)=C(F)F)c1ccc([N+](=O)[O-])o1 [Compound 21, (3,4,4-trifluoro-3-butenyl) 5-nitro-2-furancarboxylate]",pest or weed control at 0.313 ppm,[1],0%
same,pest or weed control at 0.625 ppm,[1],8%
same,pest or weed control at 1.25 ppm,[1],31%
same,pest or weed control at 2.5 ppm,[1],64%
same,pest or weed control at 5 ppm,root-knot nematode [2]; [4],13%
same,pest or weed control at 5 ppm,root-knot nematode [2]; [5],8%
same,pest or weed control at 5 ppm,root-knot nematode [2]; [6],0%
same,pest or weed control at 2.5 ppm,lesion nematode,54%
same,pest or weed control at 2.5 ppm,cyst nematode,33%
same,pest or weed control at 30 ppm,root-knot nematode [3]; [7],99%
same,pest or weed control at 30 ppm,root-knot nematode [3]; [8],96%
same,pest or weed control at 30 ppm,"root-knot nematode [3]; Table 7, 30 ppm, Top container, read-out: Percent Control",100%
"FC(F)=C(F)CCSc1nsc(SCCC(F)=C(F)F)n1 [Compound 25, 3,5-di(3,4,4-trifluoro-3-butenylthio)-1,2,4-thiadiazole]",pest or weed control at 0.312 ppm,"[1]; Table 2, Application Rate 0.312 ppm",78%
same,pest or weed control at 0.625 ppm,[1],97%
same,pest or weed control at 1.25 ppm,[1],97%
same,pest or weed control at 2.5 ppm,[1],99%
same,pest or weed control at 5 ppm,"root-knot nematode [2]; 168 h, Table 3a, 5% dust, inoculation 1 week post-treatment",100%
same,pest or weed control at 5 ppm,"root-knot nematode [2]; 336 h, Table 3a, 5% dust, inoculation 2 weeks post-treatment",97%
same,pest or weed control at 5 ppm,"root-knot nematode [2]; 672 h, Table 3a, 5% dust, inoculation 4 weeks post-treatment",98%
same,pest or weed control at 2.5 ppm,lesion nematode,77%
same,pest or weed control at 5 ppm,cyst nematode,83%
same,pest or weed control at 5 ppm,"root-knot nematode [3]; BOTTOM container, read-out: Percent Control",8%
same,pest or weed control at 5 ppm,"root-knot nematode [3]; MIDDLE container, read-out: Percent Control",69%
same,pest or weed control at 5 ppm,"root-knot nematode [3]; TOP container, read-out: Percent Control",100%
same,inhibition at 5 ppm,"Caenorhabditis elegans; Table 9 screen, 5 ppm, read-out: Percent Inhibition of Reproduction",100%
same,mortality at 5 ppm,"Caenorhabditis elegans; Table 9 screen, 5 ppm, read-out: Percent Mortality",75%
same,mortality at 5 ppm,"Caenorhabditis elegans; Table 10 evaluation, 5 ppm, read-out: Percent Mortality",100%
same,inhibition at 1.25 ppm,"Caenorhabditis elegans; Table 10 evaluation, 1.25 ppm, read-out: Percent Inhibition of Reproduction",17%
same,mortality at 1.25 ppm,"Caenorhabditis elegans; Table 10 evaluation, 1.25 ppm, read-out: Percent Mortality",0%
same,inhibition at 2.5 ppm,"Caenorhabditis elegans; Table 10 evaluation, 2.5 ppm, read-out: Percent Inhibition of Reproduction",58%
same,mortality at 2.5 ppm,"Caenorhabditis elegans; Table 10 evaluation, 2.5 ppm, read-out: Percent Mortality",0%
